In patent publication US20120121591A1 (priority 2009, published 2012):

Columns and labels:
Format in all cases: cell-based
hKv1.3 = hKv1.3 (Homo sapiens, UniProt P22001); experiment: cell-based; settings: Kv1.3 (IWQ) IC50 (nM, Avg)
[1] = test system: IL-2 secretion from T cells in human whole blood; settings: read-out: WB (IL-2) IC50 (nM, Avg)
[2] = test system: IFN-g secretion from T cells in human whole blood; settings: read-out: WB (IFNg) IC50 (nM, Avg)

Sequence of hKv1.3 (P22001 whole entry): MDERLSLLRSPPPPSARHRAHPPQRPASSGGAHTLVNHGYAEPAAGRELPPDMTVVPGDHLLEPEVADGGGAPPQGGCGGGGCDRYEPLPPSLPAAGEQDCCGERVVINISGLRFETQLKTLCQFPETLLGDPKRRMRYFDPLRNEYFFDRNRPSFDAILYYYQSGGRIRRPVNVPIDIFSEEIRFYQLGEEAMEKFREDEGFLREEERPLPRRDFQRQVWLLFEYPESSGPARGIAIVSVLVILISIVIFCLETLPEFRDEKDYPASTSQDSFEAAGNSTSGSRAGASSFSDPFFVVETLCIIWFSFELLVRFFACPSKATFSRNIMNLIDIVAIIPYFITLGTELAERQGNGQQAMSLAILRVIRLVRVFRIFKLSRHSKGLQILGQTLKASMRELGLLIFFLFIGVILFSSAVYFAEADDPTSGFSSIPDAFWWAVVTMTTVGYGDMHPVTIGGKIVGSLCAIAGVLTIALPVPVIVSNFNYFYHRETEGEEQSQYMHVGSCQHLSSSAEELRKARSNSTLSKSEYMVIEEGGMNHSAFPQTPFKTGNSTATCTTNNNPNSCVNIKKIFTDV

Structure (SMILES) | IC50 (hKv1.3) | IC50 [1] | IC50 [2]
CCCC[C@@H]1NC(=O)[C@H](CO)NC(=O)[C@H](Cc2c[nH]cn2)NC(=O)[C@H](CCCCN)NC(=O)[C@@H]2CSSC[C@@H]3NC(=O)[C@H]([C@@H](C)O)NC(=O)[C@H](CCCCN)NC(=O)[C@H](CCCNC(=N)N)NC(=O)[C@H](CSSC[C@H](NC(=O)[C@H](CCCNC(=N)N)NC(=O)[C@H](CO)NC(=O)[C@H](CCCCN)NC(=O)[C@@H]4CCCN4C(=O)[C@H]([C@@H](C)CC)NC(=O)[C@H]([C@@H](C)O)NC(=O)[C@H](CC(=O)O)NC(=O)[C@H]([C@@H](C)CC)NC(=O)[C@@H](NC(=O)[C@H](CO)NC(=O)[C@@H](N)CCCNC(=N)N)CSSC[C@@H](C(N)=O)NC(=O)[C@H]([C@@H](C)O)NC(=O)CNC3=O)C(=O)N[C@@H]([C@@H](C)O)C(=O)N[C@@H](C)C(=O)N[C@@H](Cc3ccccc3)C(=O)N[C@@H](Cc3c[nH]cn3)C(=O)N2)NC(=O)[C@H](Cc2ccccc2)NC(=O)[C@H](CO)NC(=O)[C@H](CC(C)C)NC(=O)[C@H](CCCNC(=N)N)NC(=O)[C@H](Cc2ccc(O)cc2)NC(=O)[C@H](CCCCN)NC1=O [[His, Nle21]ShK-amide] | 0.139 nM | 0.24 nM | 0.148 nM
CC[C@H](C)[C@@H]1NC(=O)[C@@H](NC(=O)[C@H](CO)NC(=O)[C@@H](N)CCCCN)CSSC[C@@H](C(=O)O)NC(=O)[C@H]([C@@H](C)O)NC(=O)CNC(=O)[C@@H]2CSSC[C@@H]3NC(=O)[C@H](CCC(N)=O)NC(=O)[C@H](Cc4ccccc4)NC(=O)[C@H](C)NC(=O)[C@H]([C@@H](C)O)NC(=O)[C@H](CSSC[C@H](NC(=O)[C@H](Cc4ccccc4)NC(=O)[C@H](CO)NC(=O)[C@H](CC(C)C)NC(=O)[C@H](CCCNC(=N)N)NC(=O)[C@H](Cc4ccc(O)cc4)NC(=O)[C@H](CCCCN)NC(=O)[C@H](CCSC)NC(=O)[C@H](CO)NC(=O)[C@H](Cc4c[nH]cn4)NC(=O)[C@H](CCCCN)NC3=O)C(=O)N[C@@H](CCCNC(=N)N)C(=O)N[C@@H](CCCCN)C(=O)N[C@@H]([C@@H](C)O)C(=O)N2)NC(=O)[C@H](CCCNC(=N)N)NC(=O)[C@H](CO)NC(=O)[C@H](CCCCN)NC(=O)[C@@H]2CCCN2C(=O)[C@H]([C@@H](C)CC)NC(=O)[C@H]([C@@H](C)O)NC(=O)[C@H](CC(=O)O)NC1=O [[Lys1]ShK] | 0.158 nM | 0.035 nM | 0.073 nM
CC[C@H](C)[C@@H]1NC(=O)[C@@H](NC(=O)[C@H](CCCCN)NC(=O)[C@@H](N)CCCNC(=N)N)CSSC[C@@H](C(=O)O)NC(=O)[C@H]([C@@H](C)O)NC(=O)CNC(=O)[C@@H]2CSSC[C@@H]3NC(=O)[C@H](CCC(N)=O)NC(=O)[C@H](Cc4ccccc4)NC(=O)[C@H](C)NC(=O)[C@H]([C@@H](C)O)NC(=O)[C@H](CSSC[C@H](NC(=O)[C@H](Cc4ccccc4)NC(=O)[C@H](CO)NC(=O)[C@H](CC(C)C)NC(=O)[C@H](CCCNC(=N)N)NC(=O)[C@H](Cc4ccc(O)cc4)NC(=O)[C@H](CCCCN)NC(=O)[C@H](CCSC)NC(=O)[C@H](CO)NC(=O)[C@H](Cc4c[nH]cn4)NC(=O)[C@H](CCCCN)NC3=O)C(=O)N[C@@H](CCCNC(=N)N)C(=O)N[C@@H](CCCCN)C(=O)N[C@@H]([C@@H](C)O)C(=O)N2)NC(=O)[C@H](CCCNC(=N)N)NC(=O)[C@H](CO)NC(=O)[C@H](CCCCN)NC(=O)[C@@H]2CCCN2C(=O)[C@H]([C@@H](C)CC)NC(=O)[C@H]([C@@H](C)O)NC(=O)[C@H](CC(=O)O)NC1=O [[Lys2]ShK] | 0.149 nM | 0.099 nM | 0.093 nM
CC[C@H](C)[C@@H]1NC(=O)[C@@H](NC(=O)[C@H](CO)NC(=O)[C@@H](N)CCCNC(=N)N)CSSC[C@@H](C(=O)O)NC(=O)[C@H]([C@@H](C)O)NC(=O)CNC(=O)[C@@H]2CSSC[C@@H]3NC(=O)[C@H](CCC(N)=O)NC(=O)[C@H](Cc4ccccc4)NC(=O)[C@H](C)NC(=O)[C@H]([C@@H](C)O)NC(=O)[C@H](CSSC[C@H](NC(=O)[C@H](Cc4ccccc4)NC(=O)[C@H](CO)NC(=O)[C@H](CC(C)C)NC(=O)[C@H](CCCNC(=N)N)NC(=O)[C@H](Cc4ccc(O)cc4)NC(=O)[C@H](CCCCN)NC(=O)[C@H](CCSC)NC(=O)[C@H](CO)NC(=O)[C@H](Cc4c[nH]cn4)NC(=O)[C@H](CCCCN)NC3=O)C(=O)N[C@@H](CCCNC(=N)N)C(=O)N[C@@H](CCCCN)C(=O)N[C@@H]([C@@H](C)O)C(=O)N2)NC(=O)[C@H](CCCNC(=N)N)NC(=O)[C@H](CO)NC(=O)[C@H](CCCCN)NC(=O)[C@@H]2CCCN2C(=O)[C@H](CCCCN)NC(=O)[C@H]([C@@H](C)O)NC(=O)[C@H](CC(=O)O)NC1=O [[Lys7]ShK] | 0.792 nM | 4.67 nM | 13.5 nM
CC[C@H](C)[C@@H]1NC(=O)[C@@H](NC(=O)[C@H](CO)NC(=O)[C@@H](N)CCCNC(=N)N)CSSC[C@@H](C(=O)O)NC(=O)[C@H]([C@@H](C)O)NC(=O)CNC(=O)[C@@H]2CSSC[C@@H]3NC(=O)[C@H](CCC(N)=O)NC(=O)[C@H](Cc4ccccc4)NC(=O)[C@H](C)NC(=O)[C@H]([C@@H](C)O)NC(=O)[C@H](CSSC[C@H](NC(=O)[C@H](Cc4ccccc4)NC(=O)[C@H](CO)NC(=O)[C@H](CC(C)C)NC(=O)[C@H](CCCNC(=N)N)NC(=O)[C@H](Cc4ccc(O)cc4)NC(=O)[C@H](CCCCN)NC(=O)[C@H](CCSC)NC(=O)[C@H](CO)NC(=O)[C@H](Cc4c[nH]cn4)NC(=O)[C@H](CCCCN)NC3=O)C(=O)N[C@@H](CCCNC(=N)N)C(=O)N[C@@H](CCCCN)C(=O)N[C@@H]([C@@H](C)O)C(=O)N2)NC(=O)[C@H](CCCNC(=N)N)NC(=O)[C@H](CCCCN)NC(=O)[C@H](CCCCN)NC(=O)[C@@H]2CCCN2C(=O)[C@H]([C@@H](C)CC)NC(=O)[C@H]([C@@H](C)O)NC(=O)[C@H](CC(=O)O)NC1=O [[Lys10]ShK] | 0.174 nM | 0.052 nM | 0.082 nM
CC[C@H](C)[C@@H]1NC(=O)[C@@H](NC(=O)[C@H](CO)NC(=O)[C@@H](N)CCCNC(=N)N)CSSC[C@@H](C(=O)O)NC(=O)[C@H]([C@@H](C)O)NC(=O)CNC(=O)[C@@H]2CSSC[C@@H]3NC(=O)[C@H](CCC(N)=O)NC(=O)[C@H](Cc4ccccc4)NC(=O)[C@H](C)NC(=O)[C@H](CCCCN)NC(=O)[C@H](CSSC[C@H](NC(=O)[C@H](Cc4ccccc4)NC(=O)[C@H](CO)NC(=O)[C@H](CC(C)C)NC(=O)[C@H](CCCNC(=N)N)NC(=O)[C@H](Cc4ccc(O)cc4)NC(=O)[C@H](CCCCN)NC(=O)[C@H](CCSC)NC(=O)[C@H](CO)NC(=O)[C@H](Cc4c[nH]cn4)NC(=O)[C@H](CCCCN)NC3=O)C(=O)N[C@@H](CCCNC(=N)N)C(=O)N[C@@H](CCCCN)C(=O)N[C@@H]([C@@H](C)O)C(=O)N2)NC(=O)[C@H](CCCNC(=N)N)NC(=O)[C@H](CO)NC(=O)[C@H](CCCCN)NC(=O)[C@@H]2CCCN2C(=O)[C@H]([C@@H](C)CC)NC(=O)[C@H]([C@@H](C)O)NC(=O)[C@H](CC(=O)O)NC1=O [[Lys13]ShK] | 0.157 nM | 0.257 nM | 0.363 nM
CC[C@H](C)[C@@H]1NC(=O)[C@@H](NC(=O)[C@H](CO)NC(=O)[C@@H](N)CCCNC(=N)N)CSSC[C@@H](C(=O)O)NC(=O)[C@H]([C@@H](C)O)NC(=O)CNC(=O)[C@@H]2CSSC[C@@H]3NC(=O)[C@H](CCC(N)=O)NC(=O)[C@H](Cc4ccccc4)NC(=O)[C@H](CCCCN)NC(=O)[C@H]([C@@H](C)O)NC(=O)[C@H](CSSC[C@H](NC(=O)[C@H](Cc4ccccc4)NC(=O)[C@H](CO)NC(=O)[C@H](CC(C)C)NC(=O)[C@H](CCCNC(=N)N)NC(=O)[C@H](Cc4ccc(O)cc4)NC(=O)[C@H](CCCCN)NC(=O)[C@H](CCSC)NC(=O)[C@H](CO)NC(=O)[C@H](Cc4c[nH]cn4)NC(=O)[C@H](CCCCN)NC3=O)C(=O)N[C@@H](CCCNC(=N)N)C(=O)N[C@@H](CCCCN)C(=O)N[C@@H]([C@@H](C)O)C(=O)N2)NC(=O)[C@H](CCCNC(=N)N)NC(=O)[C@H](CO)NC(=O)[C@H](CCCCN)NC(=O)[C@@H]2CCCN2C(=O)[C@H]([C@@H](C)CC)NC(=O)[C@H]([C@@H](C)O)NC(=O)[C@H](CC(=O)O)NC1=O [[Lys14]ShK] | 0.073 nM | 0.075 nM | 0.202 nM
CC[C@H](C)[C@@H]1NC(=O)[C@@H](NC(=O)[C@H](CO)NC(=O)[C@@H](N)CCCNC(=N)N)CSSC[C@@H](C(=O)O)NC(=O)[C@H]([C@@H](C)O)NC(=O)CNC(=O)[C@@H]2CSSC[C@@H]3NC(=O)[C@H](CCC(N)=O)NC(=O)[C@H](CCCCN)NC(=O)[C@H](C)NC(=O)[C@H]([C@@H](C)O)NC(=O)[C@H](CSSC[C@H](NC(=O)[C@H](Cc4ccccc4)NC(=O)[C@H](CO)NC(=O)[C@H](CC(C)C)NC(=O)[C@H](CCCNC(=N)N)NC(=O)[C@H](Cc4ccc(O)cc4)NC(=O)[C@H](CCCCN)NC(=O)[C@H](CCSC)NC(=O)[C@H](CO)NC(=O)[C@H](Cc4c[nH]cn4)NC(=O)[C@H](CCCCN)NC3=O)C(=O)N[C@@H](CCCNC(=N)N)C(=O)N[C@@H](CCCCN)C(=O)N[C@@H]([C@@H](C)O)C(=O)N2)NC(=O)[C@H](CCCNC(=N)N)NC(=O)[C@H](CO)NC(=O)[C@H](CCCCN)NC(=O)[C@@H]2CCCN2C(=O)[C@H]([C@@H](C)CC)NC(=O)[C@H]([C@@H](C)O)NC(=O)[C@H](CC(=O)O)NC1=O [[Lys15]ShK] | 0.295 nM | 0.465 nM | 0.991 nM
CC[C@H](C)[C@@H]1NC(=O)[C@@H](NC(=O)[C@H](CO)NC(=O)[C@@H](N)CCCNC(=N)N)CSSC[C@@H](C(N)=O)NC(=O)[C@H]([C@@H](C)O)NC(=O)CNC(=O)[C@@H]2CSSC[C@@H]3NC(=O)[C@H](CCCCN)NC(=O)[C@H](Cc4ccccc4)NC(=O)[C@H](C)NC(=O)[C@H]([C@@H](C)O)NC(=O)[C@H](CSSC[C@H](NC(=O)[C@H](Cc4cccc5ccccc45)NC(=O)[C@H](CO)NC(=O)[C@H](CC(C)C)NC(=O)[C@H](CCCNC(=N)N)NC(=O)[C@H](Cc4ccc(O)cc4)NC(=O)[C@H](CCCCN)NC(=O)[C@H](CCSC)NC(=O)[C@H](CO)NC(=O)[C@H](Cc4c[nH]cn4)NC(=O)[C@H](CCCCN)NC3=O)C(=O)N[C@@H](CCCNC(=N)N)C(=O)N[C@@H](CCCCN)C(=O)N[C@@H]([C@@H](C)O)C(=O)N2)NC(=O)[C@H](CCCNC(=N)N)NC(=O)[C@H](CO)NC(=O)[C@H](CCCCN)NC(=O)[C@@H]2CCCN2C(=O)[C@H]([C@@H](C)CC)NC(=O)[C@H]([C@@H](C)O)NC(=O)[C@H](CC(=O)O)NC1=O [[Lys16,1-Na127]ShK-amide] | 0.299 nM | 3.95 nM | 2.94 nM
